Each structure is given as a SMILES string. pIC50: −log10 of the molar value. Where a name gives a salt, the structure may show the parent alone. Read-outs that look alike come from different tables or passages of the source.

IC50 data for 22 molecules are collected here from patent publication US9409893B2, “Heteroaryl derivatives and uses thereof” (Jacobus Pharmaceutical Company, Inc., priority 2012, dated 2016).

In one assay the test system is P. falciparum strain W2. As to the kind of experiment: [3H]-hypoxanthine growth inhibition assay, P. falciparum W2. It is filed as cell-based. The following applies: Plasmodium falciparum. On the procedure: (§1) The potential for antimalarial activity against Plasmodium falciparum was determined by measuring the incorporation of tritiated hypoxanthine into parasitized red blood cells.
(§2) Stock solutions of the test compounds and the reference drug chloroquine (CQ) (Sigma Chemicals C-6628, Lot #059H0919) were prepared in silanized glass vials with AquaSil™ (Pierce, USA) to minimize absorption of the compounds to glassware. All test compounds were dissolved in DMSO (Sigma Cat No. #D8418) to 1 mM concentration, whereas CQ was dissolved in 50% methanol at a concentration of 1.6 mg/ml (base). Stock solutions were stored at −20° C.
(§3) The P. falciparum laboratory adapted strains utilized in this project (Table 1) were in vitro cultured and routinely maintained in RPMI-1640-LPLF complete medium, which contained low concentrations of para-amino benzoic acid (0.0005 mg/L) and folic acid (0.01 mg/L).
(§4) The low concentration of folic acid in RPMI-1640-LPLF prevents inhibition of the compound if its activity targets the parasite's folate metabolic pathway. Parasites were cultured in human red blood cells (RBCs) in vitro at 37° C. in special gas mixture (5% O2, 5% CO2 and 90% N2) as described Trager and Jensen (1979 Science 193:673-675).
(§5) Base cultivation medium consisted of 10.4 g/L RPMI-1640-LPLF powder (Gibco BRL), 5.97 g/L HEPES buffer (MP Biomedicals, USA), 2.0 g/L D-glucose (BDH chemicals, Australia), 0.05 g/L hypoxanthine (Sigma, USA) and 40 mg/L gentamycin (Pfizer, Australia). The pH of the medium was adjusted to 6.9 and the solution was filtered using 0.2 μm pore size (AcroCap, Gelman Science, USA). Complete medium was prepared by adding sodium bicarbonate solution (final concentration, 0.21%) and drug-free heat-inactivated human plasma, pooled from various blood types, obtained from the Australian Red Cross Blood Service (Brisbane) (final concentration, 10%) to the base RPMI-1640-LPLF. For [^3H]-hypoxanthine inhibition growth assay, RPMI-1640-LPLF complete medium which lacked [^3H]-hypoxanthine ([^3H]-RPMI-1640-LPLF) was used to prevent uptake of hypoxanthine by parasites, as radioactive hypoxanthine uptake is measured as a surrogate marker of growth. All complete medium was used within three days of preparation. See DE (Para) SOP 002 for methodology.
(§6) Red blood cells (RBC) were required for P. falciparum parasites to proliferate in vitro. 0 (Rh+) type blood was obtained from the Australian Red Cross Blood Service. The RBC were washed twice in phosphate-buffered saline (PBS) and once in [^3H]-RPMI-1640-LPLF complete medium by centrifugation at 1,500×g for 5 min. Following the final wash, the haematocrit was measured as the percent of RBC to total culture volume. The haematocrit was adjusted to 50% by removing or adding [^3H]-RPMI-LPLF complete medium. See DE (Para) SOP 003 for methodology.
(§7) All P. falciparum strains were grown in RPMI-1640-LPLF complete medium at 4% haematocrit and 1% to 8% parasitaemia at 37° C. in sealed flasks in a gas mixture of 5% O2, 5% CO2 and 90% N2 (BOC Gases, Brisbane, Australia). For drug susceptibility assays cultures were routinely synchronized when the majority of parasites (>85%) were at early trophozoite (ring) stage. Synchronization involved removing the more mature erythrocytic parasite stages by lysis, resulting in the retention only of early trophozoite (ring) stages. Synchronization was performed by re-suspending the infected red blood cell (iRBC) pellet in 5 to 10 times its volume of 5% D-sorbitol (Bacto Laboratories Pty. Ltd., Australia) for 5 min (Lambros and Vanderberg, 1979 J Parasitol 65: 418-420). The mixture was centrifuged (1,500 rpm for 5 min) and the supernatant removed. The iRBC were washed twice using PBS buffer and once using [^3H]-RPMI-LPLF plain medium. Following synchronization, a new culture was prepared with an initial parasitaemia of 1% in RPMI-LPLF complete medium. See DE (Para) SOP 008 for methodology.

For another assay, the system named is P. falciparum strain D6. In words: [3H]-hypoxanthine growth inhibition assay, P. falciparum D6. The assay is classed as cell-based. The conditions noted are these: Plasmodium falciparum. On the procedure: as §1, §2, §3, §4, §5, §6, §7
The mark [1] stands for this setting: P. falciparum W2 (resistant to chloroquine and pyrimethamine), [3H]-hypoxanthine incorporation, read-out: W2 IC50.
[2] abbreviates: P. falciparum D6 (sensitive to chloroquine and pyrimethamine), [3H]-hypoxanthine incorporation, read-out: D6 IC50.

What is called pIC50 is −log10 of the IC50, conventionally taken in molar units. For `CC(C)(C)NCc1cc(C(C)(C)C)cc(-c2cc(C(F)(F)F)ccn2)c1O` [Example 28, 4-(tert-Butyl)-2-((tert-butylamino)methyl)-6-(4-(trifluoromethyl)pyridin-2-yl)phenol hydrochloride], the pIC50 in the assay with P. falciparum strain W2 (setting [1]) is 6.95; in the assay with P. falciparum strain D6 (setting [2]), 6.45.

As to `CC(C)(C)NCc1cc(C(C)(C)C)cc(-c2cccc(C(F)(F)F)n2)c1O` [Example 29, 4-(tert-Butyl)-2-((tert-butylamino)methyl)-6-(6-(trifluoromethyl)pyridin-2-yl)phenol hydrochloride], the pIC50 is 7.17 in the assay with P. falciparum strain W2 (setting [1]) and 6.72 with P. falciparum strain D6 (setting [2]).

For the molecule `Cc1ccc(-c2cc(C(C)(C)C)cc(CNC(C)(C)C)c2O)cn1` [Example 30, 4-(tert-Butyl)-2-((tert-butylamino)methyl)-6-(6-methylpyridin-3-yl)phenol dihydrochloride], the negative logarithm of the IC50 (pIC50) with P. falciparum strain W2 (W2, read-out: W2 IC50) is 7.38; with P. falciparum strain D6 (D6, read-out: D6 IC50), 7.17.

On to `CC(C)(C)NCc1cc(C(C)(C)C)cc(-c2ncccc2C(F)(F)F)c1O` [Example 31, 4-(tert-Butyl)-2-((tert-butylamino)methyl)-6-(3-(trifluoromethyl)pyridin-2-yl)phenol 1.7hydrochloride], for which the pIC50 was 5.64 in the assay with P. falciparum strain W2 (setting [1]) and 5.26 with P. falciparum strain D6 (setting [2]).

Take `CC(C)(C)NCc1cc(C(C)(C)C)cc(-c2cnc(C(F)(F)F)cn2)c1O` [Example 32, 4-(tert-Butyl)-2-((tert-butylamino)methyl)-6-(5-(trifluoromethyl)pyrazin-2-yl)phenol hydrochloride]: the pIC50 with P. falciparum strain W2 (setting [1]) is 7.96; in the assay on P. falciparum strain D6 (setting [2]), 7.42.

In the case of `CC(C)(C)NCc1cc(C(C)(C)C)cc(-c2ccncc2C(F)(F)F)c1O` [Example 35, 4-(tert-Butyl)-2-((tert-butylamino)methyl)-6-(3-(trifluoromethyl)pyridin-4-yl)phenol dihydrochloride], the pIC50 with P. falciparum strain W2 (W2, read-out: W2 IC50) is 6.84; in the assay on P. falciparum strain D6 (D6, read-out: D6 IC50), 6.26.

Turning to `CC(C)(C)NCc1cc(C(C)(C)C)cc(-c2cnccc2C(F)(F)F)c1O` [Example 36, 4-(tert-Butyl)-2-((tert-butylamino)methyl)-6-(4-(trifluoromethyl)pyridin-3-yl)phenol 1.9hydrochloride], the pIC50 in the assay on P. falciparum strain W2 (setting [1]) is 6.40; with P. falciparum strain D6 (setting [2]), 6.11.

Regarding `CC(C)(C)NCc1cc(-c2cccnc2)cc(-c2cccnc2)c1O` [Example 37, 2-((tert-Butylamino)methyl)-4,6-di(pyridin-3-yl)phenol], the pIC50 in the assay on P. falciparum strain W2 (setting [1]) and in the assay on P. falciparum strain D6 (setting [2]) was 5.30 each time.

On to `CC(C)(C)NCc1cc(-c2ccc(C(F)(F)F)nc2)cc(-c2ccc(C(F)(F)F)nc2)c1O` [Example 38, 2-((tert-Butylamino)methyl)-4,6-bis(6-(trifluoromethyl)pyridin-3-yl)phenol], for which the negative logarithm of the IC50 (pIC50) in the assay on P. falciparum strain W2 (setting [1]) is 5.30; in the assay with P. falciparum strain D6 (setting [2]), 5.15.

With `CC(C)(C)NCc1cc(-c2ccc(Cl)c(C(F)(F)F)c2)cc(-c2ccc(C(F)(F)F)nc2)c1O` [Example 39, 3-((tert-Butylamino)methyl)-4′-chloro-3′-(trifluoromethyl)-5-(6-(trifluoromethyl)pyridin-3-yl)-[1,1′-biphenyl]-4-ol hydrochloride], the pIC50 in the assay with P. falciparum strain W2 (setting [1]) is 7.38; with P. falciparum strain D6 (setting [2]) it was 7.14.

With `CC(C)(C)NCc1cc(C(C)(C)C)cc(-c2ccc(C(F)(F)F)cn2)c1O` [Example 40, 4-(tert-Butyl)-2-((tert-butylamino)methyl)-6-(5-(trifluoromethyl)pyridin-2-yl)phenol], the negative logarithm of the IC50 (pIC50) was 7.10 with P. falciparum strain W2 (setting [1]) and 6.64 with P. falciparum strain D6 (setting [2]).

Consider `CN(Cc1cc(C(C)(C)C)cc(-c2ccc(C(F)(F)F)nc2)c1O)C(C)(C)C` [Example 45, 4-(tert-Butyl)-2-((tert-butyl(methyl)amino)methyl)-6-(6-(trifluoromethyl)pyridin-3-yl)phenol hydrochloride], for which the negative logarithm of the IC50 (pIC50) was 6.97 in the assay with P. falciparum strain W2 (setting [1]) and 6.56 with P. falciparum strain D6 (setting [2]).

For `CC(C)(C)NCc1cc(C(C)(C)C)cc(-c2nccc(C(F)(F)F)n2)c1O` [Example 46, 4-(tert-Butyl)-2-((tert-butylamino)methyl)-6-(4-(trifluoromethyl)pyrimidin-2-yl)phenol hydrochloride], the negative logarithm of the IC50 (pIC50) is 5.70 in the assay with P. falciparum strain W2 (setting [1]) and 5.68 in the assay on P. falciparum strain D6 (setting [2]).

Take `CCN(CC)Cc1cc(C(C)(C)C)cc(-c2ccc(C(F)(F)F)nc2)c1O` [Example 47, 4-(tert-Butyl)-2-((diethylamino)methyl)-6-(6-(trifluoromethyl)pyridin-3-yl)phenol hydrochloride]: the values for the pIC50 in the assay with P. falciparum strain W2 (setting [1]) and with P. falciparum strain D6 (setting [2]) were 7.51 and 7.37, respectively.

As to `CC(C)NCc1cc(C(C)(C)C)cc(-c2ccc(C(F)(F)F)nc2)c1O` [Example 48, 4-(tert-Butyl)-2-((isopropylamino)methyl)-6-(6-(trifluoromethyl)pyridin-3-yl)phenol hydrochloride], the negative-log IC50 (pIC50) in the assay on P. falciparum strain W2 (setting [1]) and with P. falciparum strain D6 (setting [2]) was 8.30 each time.

Consider `CC(C)(C)c1cc(CN2CCOCC2)c(O)c(-c2ccc(C(F)(F)F)nc2)c1` [Example 49, 4-(tert-Butyl)-2-(morpholinomethyl)-6-(6-(trifluoromethyl)pyridin-3-yl)phenol hydrochloride], for which the negative logarithm of the IC50 (pIC50) is 6.67 with P. falciparum strain W2 (setting [1]) and 6.61 in the assay with P. falciparum strain D6 (setting [2]).

Take `CN1CCN(Cc2cc(C(C)(C)C)cc(-c3ccc(C(F)(F)F)nc3)c2O)CC1` [Example 50, 4-(tert-Butyl)-2-((4-methylpiperazin-1-yl)methyl)-6-(6-(trifluoromethyl)pyridin-3-yl)phenol dihydrochloride]: the pIC50 was 6.80 in the assay with P. falciparum strain W2 (W2, read-out: W2 IC50) and 6.53 with P. falciparum strain D6 (D6, read-out: D6 IC50).

`CC(C)(C)c1cc(CN2CCCCC2)c(O)c(-c2ccc(C(F)(F)F)nc2)c1` [Example 51, 4-(tert-Butyl)-2-(piperidin-1-ylmethyl)-6-(6-(trifluoromethyl)pyridin-3-yl)phenol hydrochloride]: the pIC50 with P. falciparum strain W2 (setting [1]) was 7.62; in the assay on P. falciparum strain D6 (setting [2]) it was 7.34.

With `CC(C)(C)c1cc(CN2CCCC2)c(O)c(-c2ccc(C(F)(F)F)nc2)c1` [Example 52, 4-(tert-Butyl)-2-(pyrrolidin-1-ylmethyl)-6-(6-(trifluoromethyl)pyridin-3-yl)phenol hydrochloride], the results for the pIC50 in the assay with P. falciparum strain W2 (setting [1]) and in the assay with P. falciparum strain D6 (setting [2]) were 7.85 and 7.64, respectively.

`CC(=O)N1CCN(Cc2cc(C(C)(C)C)cc(-c3ccc(C(F)(F)F)nc3)c2O)CC1` [Example 53, 1-(4-(5-(tert-Butyl)-2-hydroxy-3-(6-(trifluoromethyl)pyridin-3-yl)benzyl)piperazin-1-yl)ethanone hydrochloride]: the pIC50 with P. falciparum strain W2 (setting [1]) is 5.64; in the assay with P. falciparum strain D6 (setting [2]), 5.44.

Turning to `CC(C)(C)NCc1cc(C(C)(C)C)cc(-c2ncc(C(F)(F)F)cn2)c1O` [Example 54, 4-(tert-Butyl)-2-((tert-butylamino)methyl)-6-(5-(trifluoromethyl)pyrimidin-2-yl)phenol hydrochloride], the negative-log IC50 (pIC50) in the assay on P. falciparum strain W2 (setting [1]) was 5.21; in the assay with P. falciparum strain D6 (setting [2]), 5.20.

As to `CC(C)(C)NCc1cc(-c2ccc(S(C)(=O)=O)cc2)cc(-c2ccc(C(F)(F)F)nc2)c1O` [Example 55, 3-((tert-Butylamino)methyl)-4′-(methylsulfonyl)-5-(6-(trifluoromethyl)pyridin-3-yl)-[1,1′-biphenyl]-4-ol hydrochloride], the pIC50 was 5.40 with P. falciparum strain W2 (setting [1]) and 5.60 in the assay on P. falciparum strain D6 (setting [2]).
